Test results as given in patent US9586914B2, “Modulators of C3a receptors” (THE UNIVERSITY OF QUEENSLAND, priority 2011, dated 2017).
Like-named read-outs stand apart in the source and are kept apart here.

Legend:
C3a receptor (C3aR) = target: T1, C3a receptor (C3aR) (Homo sapiens, UniProt Q16581); experiment: Competitive binding with [^125I]-C3a in HMDM; conditions: for IC50 / pIC50 ± SEM: HMDM; for remaining activity at 20 µM: 1 h, read-out: %[^125I]-C3a binding
T1 construct: peripheral blood mononuclear cells were isolated from buffy coat (obtained from Australian Red Cross Blood Service, Kelvin Grove); endogenous in cells; host or cells: primary human monocyte-derived macrophages (HMDM) differentiated from CD14+ monocytes of donor buffy coat
T1 sequence (Q16581 1-482): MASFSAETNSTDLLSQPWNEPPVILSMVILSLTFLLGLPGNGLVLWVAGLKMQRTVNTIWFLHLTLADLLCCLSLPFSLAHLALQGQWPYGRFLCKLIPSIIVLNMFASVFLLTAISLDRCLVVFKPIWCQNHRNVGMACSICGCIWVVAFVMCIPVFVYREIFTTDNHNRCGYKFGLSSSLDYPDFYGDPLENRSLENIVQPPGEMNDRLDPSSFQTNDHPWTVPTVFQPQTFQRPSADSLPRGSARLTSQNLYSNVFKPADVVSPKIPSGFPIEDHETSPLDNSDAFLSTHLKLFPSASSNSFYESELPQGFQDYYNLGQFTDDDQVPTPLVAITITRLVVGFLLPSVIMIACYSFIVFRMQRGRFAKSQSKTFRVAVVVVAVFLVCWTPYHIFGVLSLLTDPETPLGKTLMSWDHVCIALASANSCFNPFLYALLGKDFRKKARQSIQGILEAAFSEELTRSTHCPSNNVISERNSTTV
Source text: For HMDM, peripheral blood mononuclear cells were isolated from buffy coat (obtained from Australian Red Cross Blood Service, Kelvin Grove) using Ficoll-paque density centrifugation (GE Healthcare Bio-Science, Uppsala, Sweden). CD^14+ monocytes were positively selected using CD^14+ MACS magnetic beads (Miltenyi Biotech, Auburn, Calif., USA). […] Cells were harvested by gentle scraping in saline solution and replated for use on Day 7. […] Unbound radioactivity was removed by filtration through glass microfiber filters GF/B (Whatman Iner. […] The filter was washed 3 times with cold buffer (50 mM Tris-HCl) pH 7.4. […] The −log IC50 for each compound was calculated for separate experiments and express as an arithmetic mean standard error (SE). IC50 values were expressed as a geometric mean.

C3aR = target: T2, C3aR (Homo sapiens, UniProt Q16581); experiment: Calcium mobilization assay in HMDM (agonist/antagonist activity); format: cell-based; conditions: for EC50 / pEC50 ± SEM: Table 9, Ca^2+ mobilization; for EC50: read-out: EC50; for Emax at 10 µM: read-out: % agonist
T2 construct: peripheral blood mononuclear cells were isolated from buffy coat (obtained from Australian Red Cross Blood Service, Kelvin Grove); endogenous in cells; host or cells: primary human monocyte-derived macrophages (HMDM) differentiated from CD14+ monocytes of donor buffy coat
T2 sequence (Q16581 1-482): T1 sequence (Q16581 1-482)
Method: Harvested HMDM cells were washed with 0.9% NaCl solution by centrifugation at 2500 rpm for 5 min, followed by resuspension of the cell pellet with complete media. Cells were seeded at 5×10^4 cells/well in a 96-well black-wall, clear bottom plate (DKSH, Zurich), and left overnight to adhere at 37° C. On the day of the experiment, supernatant was removed and cells were incubated in dye loading buffer (Hank's Balanced Salt Solution (HBSS) with 4 μM Fluo-3, 25 μL pluronic acid, 1% fetal bovine serum (FBS) and 2.5 mM probenecid) for one hour at 37° C. Cells were then washed twice with HBSS and transferred to a Fluorostar spectrofluorimeter (BMG, Durham N.C.) for oxazole compound injection and fluorescence measurements.
Various compounds were examined in the calcium mobilization assay for agonist or antagonist activity compared to hC3a and to the known antagonist SB290157.
HMDMs were seeded into black-wall, clear bottom 96-well plates (Corning Incorporated, NY) at 50,000 cells/well and left to incubate at 37° C. with 5% CO2 overnight for cells to adhere. The medium was removed before being washed with the assay buffer (1×HBSS, 20 mM HEPES, 2.5 mM probenecid, pH 7.4). To each well was added 100 μL of dye-loading buffer made up of 12 mL calcium buffer, 1% FBS, 25 μL of Fluo-3 dye (final concentration of 4 μM) and 25 μL of 20% pluronic acid. The plate was covered in aluminium foil to protect the light-sensitive dye and left to incubate at 37° C. for 1 h. The dye-loading buffer was removed before the cells were washed with the assay buffer to remove excess loading dye. To each well was added 50 μL of fresh assay buffer before the plate was loaded into a FLIPR (Fluorescent Imaging Plate Reader) that can inject treatments and measure any calcium release. To generate agonist plots, calcium release was monitored for 300 seconds. To generate antagonist plots, calcium release was recorded for 900 seconds, which at the same time would allow incubation for the antagonists. After the initial incubation period, an agonist would be added and the response was recorded for 300 seconds. Intracellular release of calcium was recorded via fluorescence measurements at wavelength of 485 nm for excitation and 520 nm for emission.

[1] = Table 6, competitive binding with [^125I]-C3a, read-out: IC50 (converted)
[2] = Table 13, calcium release from HMDM, read-out: Antagonist Activity IC50
[3] = Table 6, competitive binding with [^125I]-C3a

Structure (SMILES)	IC50 (C3a receptor (C3aR); [1])	remaining activity at 20 µM (C3a receptor (C3aR))	Emax at 10 µM (C3aR)	further results
CC(C)C[C@H](NC(=O)OC(C)(C)C)c1nc(C(=O)N[C@@H](CCCNC(=N)N)C(=O)O)c(-c2ccccc2)o1 [Compound 50, Boc-Leucine-5-Phenyl-Oxazole-Arginine]	–	–	–	IC50 (C3a receptor (C3aR); Table 6, competitive binding with [^125I]-C3a, read-out: pIC50 ± SEM (converted)): 37.2 nM; IC50 (C3a receptor (C3aR); Table 11, [^125I]-C3a, read-out: Receptor Binding Affinity pIC50 ± SE (converted)): 37.2 nM; Apparent Antagonist Activity pEC50 ± SE (symbol) (C3aR; Table 11): * (The compounds show no agonist activity in calcium mobilisation assays up to 100 μM.); IC50 (C3aR; Table 11, Ca^2+ mobilisation, HMDM, read-out: Apparent Antagonist Activity IC50): 16.5 nM
CC(C)C[C@H](NC(=O)OC(C)(C)C)c1nc(C(=O)N[C@@H](CCCN/C(N)=N\C#N)C(=O)O)co1 [Compound 90, (S)-2-(2-((S)-1-((tert-butoxycarbonyl)amino)-3-methylbutyl)oxazole-4-carboxamido)-5-((Z)-2-cyanoguanidino)pentanoic acid]	41 nM	–	–	EC50 (C3aR; HMDM): 250 nM
Cc1oc([C@H](CC(C)C)NC(=O)c2cc3ccccc3s2)nc1C(=O)N[C@@H](CCCNC(=N)N)C(=O)O [Compound 27, Benzothiophene-2-carboxylic acid-Leucine-5-Methyl-Oxazole-Arginin]	–	14%	62%	–
Cc1oc([C@H](CC(C)C)NC(=O)CC(C)(C)C)nc1C(=O)N[C@@H](CCCNC(=N)N)C(=O)O [Compound 34, 3,3-Dimethylbutanoic acid-Leucine-5-Methyl-Oxazole-Arginine]	–	44%	70%	–
Cc1oc([C@H](CC(C)C)NC(=O)c2cncc(Br)c2)nc1C(=O)N[C@@H](CCCNC(=N)N)C(=O)O [Compound 48, 5-Bromonicotinic acid-Leucine-5-Methyl-Oxazole-Arginine]	–	32%	68%	–
Cc1oc([C@H](CC(C)C)NC(=O)CC2CCCCC2)nc1C(=O)N[C@@H](CCCNC(=N)N)C(=O)O [Compound 33, Cyclohexyl acetic acid-Leucine-5-Methyl-Oxazole-Arginine]	–	26%	69%	–
COc1ccc(CC(=O)N[C@@H](CC(C)C)c2nc(C(=O)N[C@@H](CCCNC(=N)N)C(=O)O)c(C)o2)cc1 [Compound 39, 4-Methoxy-phenylacetic acid-Leucine-5-Methyl-Oxazole-Arginine]	–	40%	26%	–
COc1ccc(OC)c(CC(=O)N[C@@H](CC(C)C)c2nc(C(=O)N[C@@H](CCCNC(=N)N)C(=O)O)c(C)o2)c1 [Compound 44, 2,5-Dimethoxy-phenyl acetic acid-Leucine-5-Methyl-Oxazole-Arginine]	–	42%	69%	–
N=C(N)NCCC[C@H](NC(=O)c1sc(C(c2ccccc2)c2ccccc2)nc1-c1ccccc1)C(=O)O [Compound 65, 2-Diphenylmethyl-4-phenyl thiazole-5-carboxyl-Arg-OH]	–	–	–	IC50 (C3a receptor (C3aR); Table 8, read-out: Receptor Binding Affinity ^125I IC50): 3370 nM; IC50 (C3aR; Table 10, HMDM, read-out: Antagonist Activity Ca^2+ IC50): 67000 nM
COc1cccc(CC(=O)N[C@@H](CC(C)C)c2nc(C(=O)N[C@@H](CCCNC(=N)N)C(=O)O)c(C)o2)c1 [Compound 38, 3-Methoxy-phenylacetic acid-Leucine-5-Methyl-Oxazole-Arginin]	–	41%	87%	–
CC(C)C[C@H](NC(=O)OC(C)(C)C)c1nc(C(=O)N[C@@H](CCONC(=N)N)C(=O)O)co1 [Compound 91, (S)-2-(2-((S)-1-((tert-butoxycarbonyl)amino)-3-methylbutyl)oxazole-4-carboxamido)-4-(guanidinooxy)butanoic acid]	93 nM	–	–	EC50 (C3aR; HMDM): 370 nM
Cc1oc([C@H](CC(C)C)NC(=O)Cc2ccc(/N=N/c3ccccc3)cc2)nc1C(=O)N[C@@H](CCCNC(=N)N)C(=O)O [Compound 47, Phenyl hydrazine-Benzeneacetic acid-Leucine-5-Methyl-Oxazole-Arginine]	–	49%	48%	–

The next lines start with results.

IC50 (C3a receptor (C3aR); [1])	Structure (SMILES)	remaining activity at 20 µM (C3a receptor (C3aR))	Emax at 10 µM (C3aR)	further results
853 nM	N#CN=C(N)NCCC[C@H](NC(=O)c1ccc(C(c2ccccc2)c2ccccc2)s1)C(=O)O [Compound 95, (S)-2-(5-benzhydrylthiophene-2-carboxamido)-5-(2-cyanoguanidino)pentanoic acid]	–	–	IC50 (C3aR; [2]): 900 nM
38 nM	Cc1[nH]c([C@H](CC(C)C)NC(=O)OC(C)(C)C)nc1C(=O)N[C@@H](CCCNC(=N)N)C(=O)O [Compound 80, Boc-Leucine-imidazole-Arginine-OH]	–	–	EC50 (C3aR; HMDM): 120 nM
26 nM	CC[C@H](C)[C@H](NC(=O)c1ccccc1)c1nc(C(=O)N[C@@H](CCCNC(=N)N)C(=O)O)co1 [Compound 6, Benzoyl Isoleucine Oxazole Arginine-OH]	–	–	pIC50 ± SEM (C3a receptor (C3aR); [3]): 7.58 ± 0.07; pEC50 ± SEM (C3aR; HMDM): 5.30 ± 0.18; EC50 (C3aR; HMDM): 5000 nM
888 nM	N#CN=C(N)NCCC[C@H](NC(=O)c1ccc(C(c2ccccc2)c2ccccc2)s1)C(=O)NS(=O)(=O)c1ccccc1 [Compound 96, (S)-5-benzhydryl-N-(5-(2-cyanoguanidino)-1-oxo-1-(phenylsulfonamido)pentan-2-yl)thiophene-2-carboxamide]	–	–	IC50 (C3aR; [2]): 2000 nM
12 nM	Cc1[nH]c([C@H](CC(C)C)NC(=O)c2c[nH]c3ccccc23)nc1C(=O)N[C@@H](CCCNC(=N)N)C(=O)O [Compound 79, 3-Indole carboxylic acid-Leucine-5-methyl-imidazole-Arginine-OH]	–	–	EC50 (C3aR; HMDM): 15 nM
30 nM	CC(C)C[C@H](NC(=O)OC(C)(C)C)c1nc(C(=O)N[C@@H](CCCNC(=N)N)C(=O)NS(C)(=O)=O)co1 [Compound 93, tert-butyl ((S)-1-(4-(((S)-5-guanidino-1-(methylsulfonamido)-1-oxopentan-2-yl)carbamoyl)oxazol-2-yl)-3-methylbutyl)carbamate]	–	–	IC50 (C3aR; [2]): 2000 nM
35 nM	N=C(N)NCCC[C@H](NC(=O)c1ccc(C(c2ccccc2)c2ccccc2)s1)C(=O)NS(=O)(=O)c1ccccc1 [Compound 94, (S)-5-benzhydryl-N-(5-guanidino-1-oxo-1-(phenylsulfonamido)pentan-2-yl)thiophene-2-carboxamide]	–	–	IC50 (C3aR; [2]): 300 nM
152 nM	CC[C@H](C)[C@H](NC(=O)Cc1c[nH]c2ccccc12)c1nc(C(=O)N[C@@H](CCCNC(=N)N)C(=O)O)co1 [Compound 9, 2-(1H-indol-3-yl)acetic acid-Isoleucine-Oxazole-Arginine-OH]	–	–	pIC50 ± SEM (C3a receptor (C3aR); [3]): 6.82 ± 0.10; pEC50 ± SEM (C3aR; HMDM): 7.14 ± 0.19; EC50 (C3aR; HMDM): 73 nM
375 nM	Cc1nc([C@H](CC(C)C)NC(=O)OC(C)(C)C)sc1C(=O)N[C@@H](CCCNC(=N)N)C(=O)O [Compound 82, Boc-Leucine-thiazole-Arginine-OH]	–	–	IC50 (C3aR; [2]): 200 nM
7.5 nM	CC(C)C[C@H](NC(=O)OC(C)(C)C)c1nc(C(=O)N[C@@H](CCCNC(=N)N)C(=O)NS(=O)(=O)c2ccccc2)co1 [Compound 92, tert-butyl ((S)-1-(4-(((S)-5-guanidino-1-oxo-1-(phenylsulfonamido)pentan-2-yl)carbamoyl)oxazol-2-yl)-3-methylbutyl)carbamate]	–	–	IC50 (C3aR; [2]): 1300 nM
